Measurements published in ChEMBL document CHEMBL4359892, “Discovery of novel indolylarylsulfones as potent HIV-1 NNRTIs via structure-guided scaffold morphing” (Eur J Med Chem, 2019).

Assays:
[1] = system: Human immunodeficiency virus 1; assay: Antiviral activity against HIV-1 3B infected in human MT4 cells assessed as reduction in virus-induced cytopathic effect incubated for 5 days by MTT assay; format: functional, organism-based; conditions: Human immunodeficiency virus 1, 3B, MT4, 120 h
[2] = Selectivity index, ratio of CC50 for human MT4 cells to EC50 for antiviral activity against HIV IIIB; format: toxicity; conditions: read-out: Ratio CC50/EC50
[3] = Selectivity index, ratio of CC50 for human MT4 cells to EC50 for antiviral activity against HIV RES056; format: toxicity; conditions: read-out: Ratio CC50/EC50
[4] = system: Human immunodeficiency virus 1; assay: Antiviral activity against drug resistant HIV-1 RES056 harboring reverse transcriptase K103N/Y181C double mutant infected in human MT4 cells assessed as reduction in virus-induced cytopathic effect incubated for 5 days by MTT assay; format: functional, organism-based; conditions: Human immunodeficiency virus 1, RES056, MT4, 120 h
[5] = Cytotoxicity against human MT4 cells assessed as reduction in cell viability incubated for 5 days by MTT assay; format: cell-based
[6] = system: Human immunodeficiency virus 1; assay: Antiviral activity against drug resistant HIV-1 harboring reverse transcriptase E138K mutant infected in human MT4 cells assessed as reduction in virus-induced cytopathic effect incubated for 5 days by MTT assay; format: functional, organism-based; conditions: Human immunodeficiency virus 1, MT4, 120 h
[7] = system: Human immunodeficiency virus 1; assay: Antiviral activity against drug resistant HIV-1 harboring reverse transcriptase K103N mutant infected in human MT4 cells assessed as reduction in virus-induced cytopathic effect incubated for 5 days by MTT assay; format: functional, organism-based; conditions: Human immunodeficiency virus 1, MT4, 120 h
[8] = system: Human immunodeficiency virus 1; assay: Antiviral activity against drug resistant HIV-1 harboring reverse transcriptase Y188L mutant infected in human MT4 cells assessed as reduction in virus-induced cytopathic effect incubated for 5 days by MTT assay; format: functional, organism-based; conditions: Human immunodeficiency virus 1, MT4, 120 h
[9] = system: Human immunodeficiency virus 1; assay: Antiviral activity against drug resistant HIV-1 harboring reverse transcriptase L100I mutant infected in human MT4 cells assessed as reduction in virus-induced cytopathic effect incubated for 5 days by MTT assay; format: functional, organism-based; conditions: Human immunodeficiency virus 1, MT4, 120 h
[10] = system: Human immunodeficiency virus 1; assay: Antiviral activity against drug resistant HIV-1 harboring reverse transcriptase Y181C mutant infected in human MT4 cells assessed as reduction in virus-induced cytopathic effect incubated for 5 days by MTT assay; format: functional, organism-based; conditions: Human immunodeficiency virus 1, MT4, 120 h
[11] = system: Human immunodeficiency virus 1; assay: Antiviral activity against drug resistant HIV-1 harboring reverse transcriptase F227L/V106A double mutant infected in human MT4 cells assessed as reduction in virus-induced cytopathic effect incubated for 5 days by MTT assay; format: functional, organism-based; conditions: Human immunodeficiency virus 1, MT4, 120 h

Row | SMILES | EC50 [1] [µM] | selectivity ratio [2] | selectivity ratio [3] | EC50 [4] [µM] | CC50 at 120 h [5] [µM] | EC50 [6] [µM] | EC50 [7] [µM] | EC50 [8] [µM] | EC50 [9] [µM] | EC50 [10] [µM] | EC50 [11] [µM]
1 | Cc1cc(C)cc(S(=O)(=O)c2c(C(=O)NC3CN(CC(N)=O)C3)[nH]c3ccc(Cl)cc23)c1 | 0.013 | 1940 | < 1 | > 25.5 | 25.5 |  |  |  |  |  | 
2 | Cc1cc(C)cc(S(=O)(=O)c2c(C(=O)NC3CN(Cc4ccccc4F)C3)[nH]c3ccc(Cl)cc23)c1 | 0.03 | > 7810 | > 4 | 65.1 | > 238 |  |  |  |  |  | 
3 | CCS(=O)(=O)NC(=O)c1[nH]c2ccc(Cl)cc2c1S(=O)(=O)c1cc(C)cc(C)c1 | 2.95 | > 96 |  | > 284 | > 284 | 0.59 | 10.2 | > 284 | 4.4 | 12.9 | 11.3
4 | Cc1cc(C)cc(S(=O)(=O)c2c(C(=O)NCCP(=O)(O)O)[nH]c3ccc(Cl)cc23)c1 | 0.21 | > 1100 |  | > 237 | > 237 |  |  |  |  |  | 
5 | Cc1cc(C)cc(S(=O)(=O)c2c(C(=O)NC3CN(S(C)(=O)=O)C3)[nH]c3ccc(Cl)cc23)c1 | 0.017 | > 15200 |  | > 252 | > 252 |  |  |  |  |  | 
6 | Cc1cc(C)cc(S(=O)(=O)c2c(C(=O)NC3CNC3)[nH]c3ccc(Cl)cc23)c1 | 0.074 | 495 | < 1 | ≥ 37.3 | 37.3 |  |  |  |  |  | 
7 | Cc1cc(C)cc(S(=O)(=O)c2c(C(=O)N[C@@H]3CCN(Cc4ccccc4F)C3)[nH]c3ccc(Cl)cc23)c1 | 0.12 | > 1860 |  | > 232 | > 232 |  |  |  |  |  | 
8 | Cc1cc(C)cc(S(=O)(=O)c2c(C(=O)NC3CN(Cc4cccnc4)C3)[nH]c3ccc(Cl)cc23)c1 | 0.015 | 2480 | < 1 | > 36 | 36 |  |  |  |  |  | 
9 | Cc1cc(C)cc(S(=O)(=O)c2c(C(=O)N[C@H]3CCN(Cc4n[nH]c(=O)n4C)C3)[nH]c3ccc(Cl)cc23)c1 | 0.0072 | 2980 | < 1 | ≥ 21.4 | 21.4 |  |  |  |  |  | 
10 | Cc1cc(C)cc(S(=O)(=O)c2c(C(=O)NS(=O)(=O)C3CC3)[nH]c3ccc(Cl)cc23)c1 | 2.6 | 57 | < 1 | > 147 | 147 | 0.33 | 12.1 | > 147 | 8.17 | 18.6 | 11.8
11 | Cc1cc(C)cc(S(=O)(=O)c2c(C(=O)N[C@H]3CCN(Cc4ccccc4C#N)C3)[nH]c3ccc(Cl)cc23)c1 | 0.17 | > 1350 | > 1 | 174 | > 229 |  |  |  |  |  | 
12 | Cc1cc(C)cc(S(=O)(=O)c2c(C(=O)NC3CN(Cc4ccccc4C#N)C3)[nH]c3ccc(Cl)cc23)c1 | 0.013 | > 18700 | > 4 | 66.8 | > 235 |  |  |  |  |  | 
13 | Cc1cc(C)cc(S(=O)(=O)c2c(C(=O)NS(=O)(=O)C(F)(F)F)[nH]c3ccc(Cl)cc23)c1 | 0.36 | 393 | < 1 | > 141 | 141 | 0.92 | 2.48 | > 141 | 1.41 | 5.51 | 3.53
14 | Cc1cc(C)cc(S(=O)(=O)c2c(C(=O)N[C@@H]3CCN(Cc4cccnc4)C3)[nH]c3ccc(Cl)cc23)c1 | 0.057 | 627 | < 1 | ≥ 36.5 | 36.5 |  |  |  |  |  | 
15 | Cc1cc(C)cc(S(=O)(=O)c2c(C(=O)N[C@H]3CCN(Cc4cccnc4)C3)[nH]c3ccc(Cl)cc23)c1 | 0.011 | 2010 | < 1 | ≥ 22.8 | 22.8 |  |  |  |  |  | 
16 | CCCS(=O)(=O)NC(=O)c1[nH]c2ccc(Cl)cc2c1S(=O)(=O)c1cc(C)cc(C)c1 | 2.4 | 61 | < 1 | > 146 | 146 | 0.43 | 17.3 | > 146 | 10.9 | 29.6 | 20.6
17 | Cc1cc(C)cc(S(=O)(=O)c2c(C(=O)N[C@@H]3CCNC3)[nH]c3ccc(Cl)cc23)c1 | 0.049 |  | < 1 | ≥ 9.72 | 37.3 |  |  |  |  |  | 
18 | Cc1cc(C)cc(S(=O)(=O)c2c(C(=O)NS(C)(=O)=O)[nH]c3ccc(Cl)cc23)c1 | 0.0096 | 4180 | ≤ 4 | ≥ 9.44 | 40.1 |  |  |  |  |  | 
19 | Cc1cc(C)cc(S(=O)(=O)c2c(C(=O)N[C@H]3CCN(Cc4ccccc4F)C3)[nH]c3ccc(Cl)cc23)c1 | 0.083 | 2580 | < 1 | ≥ 215 | 215 |  |  |  |  |  | 
20 | Cc1cc(C)cc(S(=O)(=O)c2c(C(=O)NC3CN(Cc4n[nH]c(=O)n4C)C3)[nH]c3ccc(Cl)cc23)c1 | 0.11 | 224 | > 224 | > 25.2 | 25.2 | 0.28 | 0.51 | 2.16 | 0.104 | 1.69 | 1.17
21 | Cc1cc(C)cc(S(=O)(=O)c2c(C(=O)NCCn3ccc(=O)[nH]c3=O)[nH]c3ccc(Cl)cc23)c1 | 4.42 | > 60 |  | > 265 | > 265 |  |  |  |  |  | 
22 | Cc1cc(C)cc(S(=O)(=O)c2c(C(=O)N[C@@H]3CCN(Cc4ccccc4C#N)C3)[nH]c3ccc(Cl)cc23)c1 | 0.053 | 2580 |  | > 186 | ≥ 186 |  |  |  |  |  | 
23 | Cc1cc(C)cc(S(=O)(=O)c2c(C(=O)N[C@H]3CCNC3)[nH]c3ccc(Cl)cc23)c1 | 0.021 | 473 | < 1 | ≥ 10 | 10 |  |  |  |  |  | 
24 | Cc1cc(C)cc(S(=O)(=O)c2c(C(=O)N[C@@H]3CCN(Cc4n[nH]c(=O)n4C)C3)[nH]c3ccc(Cl)cc23)c1 | 0.035 | 634 | < 1 | ≥ 22.4 | 22.4 |  |  |  |  |  | 
25 | O=C1Nc2ccc(Cl)cc2[C@@](C#CC2CC2)(C(F)(F)F)O1 [EFAVIRENZ] | 0.0086 |  |  | 0.26 | > 6.35 |  |  | 0.27 |  | 0.0083 | 0.25
26 | Nc1ccn([C@@H]2CS[C@H](CO)O2)c(=O)n1 [LAMIVUDINE] | 3.88 |  | > 16 | 5.54 | > 87.2 | 3.58 | 3.7 | 4.45 | 3.14 | 4.54 | 1.92
27 | Cc1ccnc2c1NC(=O)c1cccnc1N2C1CC1 [NEVIRAPINE] | 0.38 |  |  | > 15 | > 15 | 0.18 | 7.18 | > 15 | 1.24 | > 15 | > 15
